# Measured values published in patent publication US20120215126A1, “DETERMINING DYNAMIC AIRWAY RESPONSE IN A SUBJECT” (priority 2009, published 2012).
# Tested on: subject's respiratory system
# Test: acoustic transmission (transfer function magnitude) monitoring of a subject's broncho-dynamic response
# Type: in vivo
# Settings: FIG. 11, subject with exacerbation of asthma; combined treatment with Salbutamol and Ipratropium Bromide, treatment and recovery phase
# Method: This involves introducing a sound signal having known characteristics into the airway of a subject in a step 101. The signal propagates through the lung and chest tissues to the chest wall and is detected in steps 102, 105 using one or more transducers attached to the subject at one or more locations on the thoracic surface. Preferably, baseline acoustic transmission is determined in a step 103. In a step 106, changes in the detected signal are monitored during and after administration of a broncho-effector (step 104). These changes are indicative the subject's airway response (i.e. changes in airway patency due do constriction, dilation or mucus production). The test is terminated in step 107. […] By positioning the reference transducer here, the transfer function calculated by processor 205 represents the acoustic transmission of subject's respiratory system including the lower airways, alveolar sacs, thoracic tissues etc., but excludes the effects of the apparatus used to introduce the sound (e.g. loudspeaker, tubing) and the upper airways. […] The introduced sound signal is transmitted through the subject's airways, lung parenchyma and chest wall tissues such as muscle, ribs, skin etc. and in a step 102, is detected at one or more locations on the thoracic surface. […]
smiles,measurement,value
CC(C)[N+]1(C)[C@@H]2CC[C@H]1CC(OC(=O)C(CO)c1ccccc1)C2.[Br-] (some centres unmarked) [Ipratropium Bromide],airway patency,gradual improvement
CC(C)(C)NCC(O)c1ccc(O)c(CO)c1 (centres unmarked) [Salbutamol],airway patency,gradual improvement
